The nature of data set [1]: MTS cytotoxicity assay, 24-h exposure of liver cell line. As to conditions: human, HepG2 cells, IC50 HepG2 (cytotoxicity), tested 3 to 400 μM.
Another data set has as its target T1, human AChE (Homo sapiens, UniProt P22303).
T1 construct: gift from Dr. Zoran Radić, Skaggs School of Pharmacy and Pharmaceutical Sciences, UCSD
Put plainly: biochemical. It is filed as biochemical.

The next data set concerns the target human BChE (Homo sapiens, UniProt P06276). Put plainly: biochemical. It is filed as biochemical.
For a further data set, the system named is HepG2. In words: MTS cytotoxicity assay, 24-h exposure of liver cell line. To be noted: read-out: IC50 HepG2 (cytotoxicity), tested 3 to 400 μM.

Where only a bound is given, the exact number is not on record here.

human BChE, sequence (P06276 29-602): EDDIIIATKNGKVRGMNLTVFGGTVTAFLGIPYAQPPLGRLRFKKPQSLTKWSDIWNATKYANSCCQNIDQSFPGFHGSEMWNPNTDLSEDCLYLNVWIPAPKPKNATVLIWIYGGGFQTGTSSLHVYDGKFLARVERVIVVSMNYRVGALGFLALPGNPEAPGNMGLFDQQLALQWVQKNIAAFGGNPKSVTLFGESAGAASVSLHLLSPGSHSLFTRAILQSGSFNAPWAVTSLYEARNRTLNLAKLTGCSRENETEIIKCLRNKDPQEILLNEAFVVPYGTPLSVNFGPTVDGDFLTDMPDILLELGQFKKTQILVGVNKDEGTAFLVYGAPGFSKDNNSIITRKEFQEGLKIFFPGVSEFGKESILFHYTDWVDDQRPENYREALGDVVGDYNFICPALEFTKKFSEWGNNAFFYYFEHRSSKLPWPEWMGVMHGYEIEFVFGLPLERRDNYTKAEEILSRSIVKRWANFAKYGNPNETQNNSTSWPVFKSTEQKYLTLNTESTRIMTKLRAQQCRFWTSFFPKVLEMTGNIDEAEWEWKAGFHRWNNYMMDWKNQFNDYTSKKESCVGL
T1 sequence (P22303 32-614): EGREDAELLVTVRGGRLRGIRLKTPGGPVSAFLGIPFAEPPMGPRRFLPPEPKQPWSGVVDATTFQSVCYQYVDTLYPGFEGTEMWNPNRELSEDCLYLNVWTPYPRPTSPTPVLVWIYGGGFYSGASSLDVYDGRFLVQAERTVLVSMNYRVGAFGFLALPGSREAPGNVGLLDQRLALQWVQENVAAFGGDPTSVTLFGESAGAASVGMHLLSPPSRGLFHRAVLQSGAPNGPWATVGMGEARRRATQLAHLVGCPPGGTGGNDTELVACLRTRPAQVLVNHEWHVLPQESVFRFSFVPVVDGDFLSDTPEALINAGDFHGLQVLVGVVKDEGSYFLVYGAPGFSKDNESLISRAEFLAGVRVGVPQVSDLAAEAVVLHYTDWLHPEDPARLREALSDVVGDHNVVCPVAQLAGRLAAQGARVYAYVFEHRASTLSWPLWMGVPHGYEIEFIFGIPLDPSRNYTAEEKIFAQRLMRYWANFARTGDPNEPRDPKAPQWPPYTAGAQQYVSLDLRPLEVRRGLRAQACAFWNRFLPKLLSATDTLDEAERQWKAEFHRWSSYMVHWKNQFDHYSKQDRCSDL

On to `O=[N+]([O-])c1ccc(-n2cc(C=Cc3ccc(C=NO)s3)nn2)cc1` [trans-8, 5-(2-(1-(4-nitrophenyl)-1H-1,2,3-triazol-4-yl)vinyl)thiophene-2-carbaldehyde oxime], for which the IC50 at 24 h in data set [1] is greater than 400 µM. The Ki on human AChE was determined as 199 ± 38 µM; on human BChE it was 143 ± 22 µM.

On to `O/N=C/c1occc1/C=C/c1ccc(Cl)cc1` [trans,syn-16, (E)-3-((E)-4-chlorostyryl)furan-2-carbaldehyde oxime], for which the IC50 at 24 h in data set [1] was greater than 400 µM. This molecule returned a Ki on human AChE of 217 ± 160 µM.

As for `N#Cc1ccc(/C=C\c2ccsc2/C=N/O)cc1` [cis,syn-21, 4-((Z)-2-(2-((E)-(hydroxyimino)methyl)thiophen-3-yl)vinyl)benzonitrile], the IC50 at 24 h in data set [1] is no more than 100 µM. Further, the IC50 in the data set on HepG2 turned out to be 118 ± 46 µM. Further, the Ki on human AChE is 171 ± 68 µM; on human BChE, 59 ± 8 µM.

Turning to `Cc1ccc(/C=C\c2ccsc2/C=N/O)cc1` [cis,syn-18, (E)-3-((Z)-4-methylstyryl)thiophene-2-carbaldehyde oxime], the IC50 at 24 h in data set [1] amounted to 269 ± 38 µM. The molecule also gave an inhibitory constant (Ki) at human BChE of 86 ± 32 µM.

Consider `O=[N+]([O-])c1ccc(-n2cc(C=NO)nn2)cc1` [compound 3, 1-(4-nitrophenyl)-1H-1,2,3-triazole-4-carbaldehyde oxime], for which the IC50 at 24 h in data set [1] is greater than 400 µM. Also, the Ki on human AChE was 280 ± 30 µM; at human BChE, 303 ± 66 µM.

For `N#Cc1ccc(/C=C/c2ccoc2/C=N/O)cc1` [trans,syn-17, 4-((E)-2-(2-((E)-(hydroxyimino)methyl)furan-3-yl)vinyl)benzonitrile], the IC50 at 24 h in data set [1] was greater than 400 µM. The Ki at human AChE was found to be 66 ± 24 µM. Moreover, at human BChE, the “inhibition selectivity (AChE vs BChE)” value is “selective AChE inhibitors”.

In data set [1], `N#Cc1ccc(/C=C\c2ccoc2/C=N/O)cc1` [cis,syn-17, 4-((Z)-2-(2-((E)-(hydroxyimino)methyl)furan-3-yl)vinyl)benzonitrile] showed an IC50 at 24 h of no more than 100 µM. Also, the IC50 in the data set with HepG2 turned out to be 120 ± 6 µM. For the same molecule, the Ki on human AChE turned out to be 544 ± 105 µM.

Turning to `Cc1ccc(/C=C/c2ccc(/C=N/O)o2)cc1` [trans,syn-10, (E)-5-((E)-4-methylstyryl)furan-2-carbaldehyde oxime], the IC50 at 24 h in data set [1] was no more than 100 µM. For the same molecule, the IC50 with HepG2 was 105 ± 4 µM. In addition, the Ki at human AChE was 111 ± 45 µM; at human BChE, 38 ± 9.8 µM.

`Cc1ccccc1/C=C/c1oc2ccc3ccccc3c2c1/C=N/O` [trans,syn-9, (E)-2-((E)-2-methylstyryl)naphtho[2,1-b]furan-1-carbaldehyde oxime] showed an IC50 at 24 h in data set [1] greater than 400 µM. The results for the Ki at human AChE and at human BChE were 172 ± 29 µM and 303 ± 65 µM, respectively.

With `ON=Cc1cn(Cc2ccc(F)cc2)nn1` [compound 1, 1-(4-fluorobenzyl)-1H-1,2,3-triazole-4-carbaldehyde oxime], the half-inhibitory concentration (IC50) at 24 h in data set [1] was greater than 400 µM. Moreover, the Ki on human AChE stood at 271 ± 29 µM; at human BChE, 503 ± 32 µM.

Consider `COc1ccc(/C=C/c2ccoc2/C=N\O)cc1` [trans,anti-15, (Z)-3-((E)-4-methoxystyryl)furan-2-carbaldehyde oxime], for which, in data set [1], the IC50 at 24 h was greater than 400 µM. On human AChE, the “inhibition of human AChE (in words)” value is “poor inhibitors”. Further, the “inhibition of human BChE (in words)” value against human BChE is reported as “poor inhibitors”.

`Cc1ccc(/C=C/c2ccoc2/C=N/O)cc1` [trans,syn-14, (E)-3-((E)-4-methylstyryl)furan-2-carbaldehyde oxime] gave an IC50 at 24 h in data set [1] greater than 400 µM. In addition, the Ki on human BChE amounted to 122 ± 47 µM.

As for `ON=Cc1cn(Cc2ccc(Cl)cc2)nn1` [compound 2, 1-(4-chlorobenzyl)-1H-1,2,3-triazole-4-carbaldehyde oxime], the IC50 at 24 h in data set [1] was greater than 400 µM. Besides, the inhibition constant (Ki) at human AChE stood at 267 ± 92 µM; on human BChE it was 24 ± 2.9 µM. The “inhibition selectivity (AChE vs BChE)” value at human BChE was “selective BChE inhibitors”.

Turning to `CCCn1cc(C=Cc2ccc(C=NO)s2)nn1` [trans-7], the IC50 at 24 h in data set [1] was greater than 400 µM. The Ki on human AChE was found to be 147 ± 43 µM; at human BChE, 49 ± 11 µM.

`O/N=C\c1ccc(/C=C/c2ccccc2O)s1` [trans,anti-4, (Z)-5-((E)-2-hydroxystyryl)thiophene-2-carbaldehyde oxime]: the midpoint of inhibition in data set [1], the IC50 at 24 h, lay at 191 ± 21 µM. In addition, the Ki on human AChE was determined as 258 ± 90 µM; on human BChE it was 6.5 ± 0.5 µM.

In turn, `O/N=C\c1ccc(/C=C/c2ccco2)o1` [trans,anti-6, (Z)-5-((E)-2-(furan-2-yl)vinyl)furan-2-carbaldehyde oxime] showed an IC50 at 24 h in data set [1] of no less than 400 µM. In addition, at human BChE, the affinity corresponds to a Ki of 123 ± 23 µM.

Consider `Cc1ccc(/C=C\c2ccoc2/C=N/O)cc1` [cis,syn-14, (E)-3-((Z)-4-methylstyryl)furan-2-carbaldehyde oxime], for which, in data set [1], the midpoint of inhibition, the IC50 at 24 h, lay at 182 ± 32 µM. Besides, the Ki on human AChE was determined as 627 ± 245 µM; on human BChE it was 93 ± 30 µM.

`N#Cc1ccc(/C=C\c2ccsc2/C=N\O)cc1` [cis,anti-21, 4-((Z)-2-(2-((Z)-(hydroxyimino)methyl)thiophen-3-yl)vinyl)benzonitrile]: the IC50 at 24 h in data set [1] amounted to 182 ± 13 µM. Also, the Ki at human AChE came to 187 ± 54 µM; at human BChE, 53 ± 10 µM.

The molecule `Cc1ccc(/C=C/c2ccsc2/C=N/O)cc1` [trans,syn-18, (E)-3-((E)-4-methylstyryl)thiophene-2-carbaldehyde oxime] gave an IC50 at 24 h in data set [1] greater than 400 µM. On human AChE, this molecule had a Ki of 59 ± 39 µM. Also, at human BChE, the “inhibition selectivity (AChE vs BChE)” value is reported as “selective AChE inhibitors”.

Molecule `Cc1ccc(/C=C/c2ccc(/C=N\O)o2)cc1` [trans,anti-10, (Z)-5-((E)-4-methylstyryl)furan-2-carbaldehyde oxime] came in with an IC50 at 24 h in data set [1] greater than 400 µM. On human AChE, the Ki was 180 ± 40 µM.

`Cc1ccc(/C=C\c2ccsc2/C=N\O)cc1` [cis,anti-18, (Z)-3-((Z)-4-methylstyryl)thiophene-2-carbaldehyde oxime]: the IC50 at 24 h in data set [1] is greater than 400 µM. The molecule also had a Ki on human BChE of 760 ± 122 µM.

Take `COc1ccc(/C=C\c2csc(/C=N/O)c2)cc1` [cis,syn-19′, (E)-4-((Z)-4-methoxystyryl)thiophene-2-carbaldehyde oxime]: the concentration for half-maximal inhibition (IC50) at 24 h in data set [1] was greater than 400 µM. Also, the “inhibition of human AChE (in words)” value against human AChE is reported as “poor inhibitors”. Also, at human BChE, the “inhibition of human BChE (in words)” value is reported as “poor inhibitors”.

On to `N#Cc1ccccc1/C=C\c1ccc(/C=N/O)s1` [cis,syn-5, 2-((Z)-2-(5-((E)-(hydroxyimino)methyl)thiophen-2-yl)vinyl)benzonitrile], for which the IC50 at 24 h in data set [1] is no less than 400 µM. Also, the Ki at human AChE came to 112 ± 21 µM; at human BChE it was 17 ± 2 µM.

The molecule `O/N=C/c1ccc(/C=C\c2ccc(Cl)cc2)o1` [cis,syn-12, (E)-5-((Z)-4-chlorostyryl)furan-2-carbaldehyde oxime] came in with an IC50 at 24 h in data set [1] of 226 ± 10 µM. The results for the inhibition constant (Ki) at human AChE and on human BChE were 68 ± 37 µM and 147 ± 37 µM, respectively.

`O/N=C/c1occc1/C=C\c1ccc(Cl)cc1` [cis,syn-16, (E)-3-((Z)-4-chlorostyryl)furan-2-carbaldehyde oxime] had an IC50 at 24 h in data set [1] of no more than 100 µM. In the data set on HepG2, the IC50 amounted to 65 ± 13 µM. The affinity at human BChE corresponds to a Ki of 119 ± 44 µM.
